# Assays:
# [1] = tested on: NCI-H358 cells; assay: Proliferation inhibition of NCI-H358 cells (CellTiter-Glo); assay type: cell-based; details: Homo sapiens, NCI-H358, 72 h; 3 days incubation
# Description: Experimental method: 3000 cells (90 μL of cell suspension) were inoculated to each well of a 96-well cell culture plate (Corning, #3610). The culture plate was incubated in an incubator overnight (37° C., 5% CO2). On the next day, 10 μL of gradient dilutions of the test compound solution (the final DMSO content was 0.2%, V/V, the final concentration of the reaction system ranged from 10 μM to 4.5 nM) was added to each well of the culture plate. At the same time, full activity control (compound only with DMSO) and full inhibition control (no cells) were set up on the reaction plate. The culture plate was incubated in the incubator for 3 days (37° C., 5% CO2).
# After completion of the incubation, 50 μL of CellTiter-Glo reagent was added to each well of the cell culture plate, which was left to stand at room temperature for 10 minutes. The chemiluminescence signal value was measured in the Synergy H1 full-function microplate reader (BioTek). […] The IC50 value of the test compounds was calculated by fitting the percentage inhibition rate and data of eight concentrations to a four-parameter nonlinear logic formula with GraphPad prism.
# The IC50 value was calculated by fitting the data of different concentrations and corresponding percentage inhibition rates to a four-parameter nonlinear logic formula with GraphPad prism.
# [2] = target: T1, SHP-2 full-length protein (Homo sapiens, UniProt Q06124); assay: Inhibition of SHP-2 kinase activity (Homogeneous Full Length SHP-2 Assay Kit); assay type: biochemical; details: relative IC50, full-length SHP-2 with activating peptide
# T1 construct: purchased BPS Bioscience 79330
# T1 sequence (Q06124 1-593): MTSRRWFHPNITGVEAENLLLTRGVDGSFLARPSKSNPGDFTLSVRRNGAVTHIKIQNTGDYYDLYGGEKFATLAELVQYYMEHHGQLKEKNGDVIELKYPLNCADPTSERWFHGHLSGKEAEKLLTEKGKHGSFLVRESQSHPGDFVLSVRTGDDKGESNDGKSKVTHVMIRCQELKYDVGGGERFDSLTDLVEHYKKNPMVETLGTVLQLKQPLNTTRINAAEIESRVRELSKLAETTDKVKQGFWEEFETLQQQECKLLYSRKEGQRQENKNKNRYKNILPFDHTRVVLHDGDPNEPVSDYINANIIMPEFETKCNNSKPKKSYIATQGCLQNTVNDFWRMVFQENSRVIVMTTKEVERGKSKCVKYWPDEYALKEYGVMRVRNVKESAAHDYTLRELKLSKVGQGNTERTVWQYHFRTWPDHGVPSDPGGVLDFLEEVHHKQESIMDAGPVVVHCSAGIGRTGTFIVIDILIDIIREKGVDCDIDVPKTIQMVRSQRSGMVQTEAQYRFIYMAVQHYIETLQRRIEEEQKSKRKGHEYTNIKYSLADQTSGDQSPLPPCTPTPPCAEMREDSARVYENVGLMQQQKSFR
# Description: The objective of this test is to determine the inhibitory effect of the compounds on SHP-2 full-length protein allosteric activity.
# Experimental method: Homogeneous Full Length SHP-2 Assay Kit (BPS Bioscience, #79330) was used to determine the in vitro SHP-2 activity. First, 18 μL of Master Mix was added to a 96-well low adsorption microplate (NUNC, #267342), i.e., the reaction buffer with a final concentration of 1× comprised 0.5 μM SHP-2 activating Peptide and 5 mM DTT. After centrifugation, 5 μL of test compound/DMSO was added to each well (the final DMSO content was 1%, V/V, the test compound was dissolved in DMSO to 1 mM, a three-fold serial dilution was carried out to obtain ten concentrations, the final concentration of the reaction system ranged from 1 μM to 0.05 nM). SHP-2 was diluted in the 1× reaction buffer to a final concentration of 0.06 nM, and the resulting solution was added to the reaction microplate (2 μL per well). Full activity control (compound only with DMSO) and full inhibition control (no SHP-2) were set up on the reaction plate. After centrifugation, the reaction mixture was incubated at room temperature for 60 minutes.
# After completion of the incubation, 25 μL of Substrate solution, which comprised Substrate with a final concentration of 10 μM and 5 mM DTT, was added to each well. After centrifugation, the reaction mixture was incubated at room temperature for 30 minutes. After completion of the reaction, readings were measured on the Synergy H1 full-function microplate reader (BioTek) (excitation wavelength: 340 nm, emission wavelength: […], gain value: 75).
# The IC50 value of the test compounds was calculated by fitting the percentage inhibition rate and data of ten concentrations to a four-parameter nonlinear logic formula with GraphPad prism.
Structure (SMILES),IC50 [1],IC50 [2]
"Nc1nc(N2CCC3(CC2)Cc2ccccc2[C@H]3N)cnc1Sc1ccnc(N)c1C1CC1 [Example 91, (S)-1′-(6-amino-5-((2-amino-3-cyclopropylpyridin-4-yl)thio)pyrazin-2-yl)-1,3-dihydrospiro[indene-2,4′-piperidin]-1-amine]",0.037 µM,0.0178 µM
"Nc1nc(N2CCC3(CC2)Cc2ccccc2[C@H]3N)cnc1Sc1ccnc(Cl)c1C1CC1 [Example 92, (S)-1′-(6-amino-5-((2-chloro-3-cyclopropylpyridin-4-yl)thio)pyrazin-2-yl)-1,3-dihydrospiro[indene-2,4′-piperidin]-1-amine]",0.0105 µM,0.00417 µM
"Nc1nc(N2CCC3(CC2)Cc2ccccc2[C@H]3N)cnc1Sc1ccnc(C2CC2)c1Cl [Example 93, (S)-1′-(6-amino-5-((3-chloro-2-cyclopropylpyridin-4-yl)thio)pyrazin-2-yl)-1,3-dihydrospiro[indene-2,4′-piperidin]-1-amine]",0.0311 µM,0.00433 µM
"Nc1nc(N2CCC3(CC2)CC2CC2[C@H]3N)cnc1Sc1ccnc(N)c1C1CC1 (stereo partly drawn) [Example 94, (2R)-1′-(6-amino-5-((2-amino-3-cyclopropylpyridin-4-yl)thio)pyrazin-2-yl)spiro[bicyclo[3.1.0]hexane-3,4′-piperidin]-2-amine]",0.184 µM,0.0117 µM
"Nc1nc(N2CCC3(CC2)Cc2ccccc2[C@H]3N)c(Br)nc1Sc1ccnc(N)c1Cl [Example 95, (S)-1′-(6-amino-5-((2-amino-3-chloropyridin-4-yl)thio)-3-bromopyrazin-2-yl)-1,3-dihydrospiro[indene-2,4′-piperidin]-1-amine]",0.00639 µM,0.00627 µM
"N[C@@H]1c2ccccc2CC12CCN(c1cnc(Sc3ccnc(C4CC4)c3Cl)cn1)CC2 [Example 97, (S)-1′-(5-((3-chloro-2-cyclopropylpyridin-4-yl)thio)pyrazin-2-yl)-1,3-dihydrospiro[indene-2,4′-piperidin]-1-amine]",0.0419 µM,0.0132 µM
"Nc1nc(N2CCC3(CC2)Cc2ncsc2[C@H]3N)cnc1Sc1ccnc(C2CC2)c1Cl [Example 98, (S)-1′-(6-amino-5-((3-chloro-2-cyclopropylpyridin-4-yl)thio)pyrazin-2-yl)-4,6-dihydrospiro[cyclopenta[d]thiazole-5,4′-piperidin]-6-amine]",0.0185 µM,0.00393 µM
"Nc1nc(N2CCC3(CC2)Cc2nc(Cl)sc2[C@H]3N)cnc1Sc1ccnc(C2CC2)c1Cl [Example 99, (S)-1′-(6-amino-5-((3-chloro-2-cyclopropylpyridin-4-yl)thio)pyrazin-2-yl)-2-chloro-4,6-dihydrospiro[cyclopenta[d]thiazole-5,4′-piperidin]-6-amine]",0.0328 µM,0.0296 µM
"Nc1nc(N2CCC3(CC2)Cc2ccccc2[C@H]3N)cnc1Sc1ccnc(N2CCC2)c1Cl [Example 100, (S)-1′-(6-amino-5-((2-(azetidin-1-yl)-3-chloropyridin-4-yl)thio)pyrazin-2-yl)-1,3-dihydrospiro[indene-2,4′-piperidin]-1-amine]",0.0245 µM,0.00098 µM
"Nc1nc(N2CCC3(CC2)Cc2ccccc2[C@H]3N)cnc1Sc1ccnc(N2CCOCC2)c1Cl [Example 101, (S)-1′-(6-amino-5-((3-chloro-2-morpholinopyridin-4-yl)thio)pyrazin-2-yl)-1,3-dihydrospiro[indene-2,4′-piperidin]-1-amine]",0.0377 µM,0.00522 µM
"Nc1nc(N2CCC3(CC2)Cc2ccccc2[C@H]3N)cnc1Sc1ccnc(N2CC(F)(F)C2)c1Cl [Example 102, (S)-1′-(6-amino-5-((3-chloro-2-(3,3-difluoroazetidin-1-yl)pyridin-4-yl)thio)pyrazin-2-yl)-1,3-dihydrospiro[indene-2,4′-piperidin]-1-amine]",0.0426 µM,0.00375 µM
"Nc1nc(N2CCC3(CC2)Cc2ccccc2[C@H]3N)cnc1Sc1ccnc(N2CCCC2)c1Cl [Example 103, (S)-1′-(6-amino-5-((3-chloro-2-(pyrrolidin-1-yl)pyridin-4-yl)thio)pyrazin-2-yl)-1,3-dihydrospiro[indene-2,4′-piperidin]-1-amine]",0.047 µM,0.00066 µM
"Cc1nc(N2CCC3(CC2)Cc2ccccc2[C@H]3N)c(CO)nc1-c1cccc(Cl)c1Cl [Example 105, (S)-(3-(1-amino-1,3-dihydrospiro[indene-2,4′-piperidin]-1′-yl)-6-(2,3-dichlorophenyl)-5-methylpyrazin-2-yl)methanol]",0.0109 µM,0.00156 µM
"Nc1nc(N2CCC3(CC2)CCC2(CC2)[C@H]3N)cnc1Sc1ccnc(N)c1Cl [Example 151, (R)-8-(6-amino-5-((2-amino-3-chloropyridin-4-yl)thio)pyrazin-2-yl)-8-azadispiro[2.1.55.23]dodecan-4-amine]",0.137 µM,0.00771 µM
"Cc1nc(N2CCC3(CC2)Cc2ccccc2[C@H]3N)c(CO)nc1Sc1ccnc(N)c1Cl [Example 170, (S)-(3-(1-amino-1,3-dihydrospiro[indene-2,4′-piperidin]-1′-yl)-6-((2-amino-3-chloropyridin-4-yl)thio)-5-methylpyrazin-2-yl)methanol]",0.0259 µM,0.00681 µM
"Nc1nc(N2CCC3(CC=C(C4CC4)[C@H]3N)CC2)c(F)nc1Sc1ccnc(N)c1Cl [Example 182, (S)-8-(6-amino-5-((2-amino-3-chloropyridin-4-yl)thio)-3-fluoropyrazin-2-yl)-2-cyclopropyl-8-azaspiro[4.5]dec-2-en-1-amine]",0.0785 µM,0.00378 µM
"Cc1nc(N2CCC3(CC2)Cc2ccccc2[C@H]3N)c(CO)nc1Sc1ccnc(N)n1 [Example 183, (S)-(3-(1-amino-1,3-dihydrospiro[indene-2,4′-piperidin]-1′-yl)-6-((2-aminopyrimidin-4-yl)thio)-5-methylpyrazin-2-yl)methanol]",0.105 µM,0.0067 µM
"CC1=CCC2(CCN(c3nc(N)c(Sc4ccnc(N)c4Cl)nc3F)CC2)[C@@H]1N [Example 184, (S)-8-(6-amino-5-((2-amino-3-chloropyridin-4-yl)thio)-3-fluoropyrazin-2-yl)-2-methyl-8-azaspiro[4.5]dec-2-en-1-amine]",0.0565 µM,0.00425 µM

# From patent US20210355105A1, “REGULATOR OF NITROGEN-CONTAINING HETEROAROMATIC DERIVATIVES, PREPARATION METHOD THEREFOR AND USE THEREOF” (Jiangsu Hansoh Pharmaceutical Group Co., Ltd., priority 2018, published 2021)
